Measured values taken from PubChem BioAssay AID296 (DTP/NCI, 2004).
Where “and” joins values, the source holds several entries; their conditions need not be identical. Equal entries are not always repeated. Records with an inconclusive call do not appear.

Tested on: MX-1 breast xenograft, nude mice, tumor weight T/C
Assay: NCI In Vivo Anticancer Drug Screen. Data for tumor model Human Mammary Carcinoma MX-1 Xenograft (intrarenal inoculation) in NU/NU Swiss (nude) mice
Settings: endpoint: mean tumor weight change, higher = larger tumour
Procedure: The antitumor activity of compounds was measured in mice bearing transplantable tumors. Survival or tumor size were measured and the results are expressed as the measurement made in the treated group (T) divided by the measurement made in the vehicle treated control group (C). The tumor model used in this assay is Human Mammary Carcinoma MX-1 Xenograft (intrarenal inoculation) in NU/NU Swiss (nude) mice

[1] = dose: 300.0 mg/kg/injection, schedule: Q04DX003 (sc), vehicle: saline with Tween-80
[2] = dose: 600.0 mg/kg/injection, schedule: Q04DX003 (sc), vehicle: saline with Tween-80
[3] = dose: 1200.0 mg/kg/injection, schedule: Q04DX003 (sc), vehicle: saline with Tween-80
[4] = dose: 2400.0 mg/kg/injection, schedule: Q04DX003 (sc), vehicle: saline with Tween-80
[5] = dose: 12.5 mg/kg/injection, schedule: Q04DX003 (sc), vehicle: suspension in saline
[6] = dose: 25.0 mg/kg/injection, schedule: Q04DX003 (sc), vehicle: suspension in saline
[7] = dose: 50.0 mg/kg/injection, schedule: Q04DX003 (sc), vehicle: suspension in saline

For `COC1CC(C)C(OC)c2cc(O)cc(c2O)NC(=O)/C(C)=C/C=C\C(C)C(OC(N)=O)/C(C)=C\C(C)C1OC` (stereo not drawn), the T/C (dose: 12.5 mg/kg/injection, schedule: Q04DX003 (sc), vehicle: saline + alcohol) was 103 % of control, the T/C (dose: 25.0 mg/kg/injection, schedule: Q04DX003 (sc), vehicle: saline + alcohol) was 104 % of control and the T/C (dose: 50.0 mg/kg/injection, schedule: Q04DX003 (sc), vehicle: saline + alcohol) was 90 % of control. The T/C (dose: 100.0 mg/kg/injection, schedule: Q04DX003 (sc), vehicle: saline + alcohol) was 109 % of control.

`CC1CC(C)CC(C)C(O)/C(C#N)=C/C=C/CC(C2CCCC2C(=O)O)OC(=O)CC(O)C(C)C1` (stereo not drawn) was tested, and the T/C (dose: 6.0 mg/kg/injection, schedule: Q04DX003 (sc), vehicle: Klucel (hydroxypropylcellulose) (HPC)) was 87 % of control and the T/C (dose: 12.0 mg/kg/injection, schedule: Q04DX003 (sc), vehicle: Klucel (hydroxypropylcellulose) (HPC)) was 79 % of control.

For `O=NN(CCCl)C(=O)NCCCl`, the T/C (dose: 2.0 mg/kg/injection, schedule: Q01DX010 (sc), vehicle: saline) was 74 % of control, the T/C (dose: 4.0 mg/kg/injection, schedule: Q01DX010 (sc), vehicle: saline) was 76 % of control and the T/C (dose: 4.0 mg/kg/injection, schedule: Q01DX010 (sc), vehicle: suspension in saline) was 80 % of control. The T/C (dose: 7.5 mg/kg/injection, schedule: Q04DX003 (sc), vehicle: suspension in saline) was 80 % of control, the T/C (dose: 8.0 mg/kg/injection, schedule: Q01DX010 (sc), vehicle: saline) was 56 % of control and the T/C (dose: 8.0 mg/kg/injection, schedule: Q01DX010 (sc), vehicle: suspension in saline) was 44 % of control. The T/C (dose: 15.0 mg/kg/injection, schedule: Q04DX003 (sc), vehicle: suspension in saline) was 37 % of control and 52 % of control, the T/C (dose: 16.0 mg/kg/injection, schedule: Q01DX010 (sc), vehicle: suspension in saline) was 2 % of control and the T/C (dose: 32.0 mg/kg/injection, schedule: Q01DX010 (sc), vehicle: saline) was 2 % of control.

With `CCC1CCCCN1C(=S)N/N=C(\C)c1ccccn1` (stereo not drawn) the T/C (dose: 18.75 mg/kg/injection, schedule: Q04DX003 (sc), vehicle: saline with Tween-80) was 53 % of control, the T/C (dose: 37.5 mg/kg/injection, schedule: Q04DX003 (sc), vehicle: saline with Tween-80) was 97 % of control and the T/C (dose: 75.0 mg/kg/injection, schedule: Q04DX003 (sc), vehicle: saline with Tween-80) was 82 % of control.

For `Cc1oc2c(C)c3oc(=O)cc(C)c3cc2c1CCl`, the T/C [1] was 109 % of control, the T/C [2] was 75 % of control and the T/C [3] was 83 % of control. For the same compound, the T/C [4] was 54 % of control.

For `O=[Te]=O`, the T/C [5] was 91 % of control, the T/C [6] was 79 % of control and the T/C [7] was 122 % of control.

`CCOC(=O)Nc1cc2c(c(N)n1)N=C(c1ccccc1)CN2` was tested, and the T/C (dose: 6.25 mg/kg/injection, schedule: Q04DX003 (sc), vehicle: saline with Tween-80) was 80 % of control, the T/C (dose: 12.5 mg/kg/injection, schedule: Q04DX003 (sc), vehicle: saline with Tween-80) was 83 % of control and the T/C (dose: 25.0 mg/kg/injection, schedule: Q04DX003 (sc), vehicle: saline with Tween-80) was 68 % of control.

For `NC(C/[N+]([O-])=N/O)C(=O)O` (stereo not drawn), the T/C (dose: 50.0 mg/kg/injection, schedule: Q01DX010 (sc), vehicle: saline) was 98 % of control and the T/C (dose: 100.0 mg/kg/injection, schedule: Q01DX010 (sc), vehicle: saline) was 62 % of control.

In the case of `Cc1cn(C2CC(F)C(CO)O2)c(=O)[nH]c1=O` (stereo not drawn), the T/C (dose: 150.0 mg/kg/injection, schedule: Q04DX003 (sc), vehicle: suspension in saline) is reported as 56 % of control, the T/C (dose: 300.0 mg/kg/injection, schedule: Q04DX003 (sc), vehicle: suspension in saline) is reported as 105 % of control and the T/C (dose: 600.0 mg/kg/injection, schedule: Q04DX003 (sc), vehicle: suspension in saline) is reported as 111 % of control. For the same compound, the T/C (dose: 1200.0 mg/kg/injection, schedule: Q04DX003 (sc), vehicle: suspension in saline) was 93 % of control.

`Cn1cnc([N+](=O)[O-])c1[Se]c1nc(N)nc2nc[nH]c12` was tested, and the T/C (dose: 50.0 mg/kg/injection, schedule: Q01DX010 (sc), vehicle: water) was 71 % of control.

With `CCN(CC)CC[n+]1ccc2c(C)c3[nH]c4ccc(O)cc4c3c(C)c2c1` the T/C [5] was 82 % of control and the T/C [6] was 77 % of control.

For `CN(C)C=O`, the T/C (dose: 200.0 mg/kg/injection, schedule: Q01DX010 (sc), vehicle: saline) was 10 % of control, the T/C (dose: 1896.0 mg/kg/injection, schedule: Q01DX010 (sc), vehicle: suspension in saline) was 1 % of control and the T/C (dose: 2844.0 mg/kg/injection, schedule: Q01DX010 (sc), vehicle: suspension in saline) was -44 % of control. The T/C (dose: 4266.0 mg/kg/injection, schedule: Q01DX010 (sc), vehicle: suspension in saline) was -11 % of control.

For `Cc1ccc2c(c1)C(=O)N(CC[P+](c1ccccc1)(c1ccccc1)c1ccccc1)C2=O`, the T/C (dose: 25.0 mg/kg/injection, schedule: Q04DX003 (sc), vehicle: Klucel (hydroxypropylcellulose) (HPC)) was 110 % of control.

With `OC(CCl)CN1CC[N+]2(CC1)CC[N+]1(CCN(CC(O)CCl)CC1)CC2` (stereo not drawn) the T/C (dose: 8.0 mg/kg/injection, schedule: Q01DX010 (sc), vehicle: water) was 117 % of control, the T/C (dose: 32.0 mg/kg/injection, schedule: Q01DX010 (ip), vehicle: water) was 90 % of control and the T/C (dose: 64.0 mg/kg/injection, schedule: Q01DX010 (ip), vehicle: water) was 88 % of control. For the same compound, the T/C (dose: 64.0 mg/kg/injection, schedule: Q01DX010 (sc), vehicle: water) was 92 % of control and 94 % of control, the T/C (dose: 106.66 mg/kg/injection, schedule: Q04DX003 (ip), vehicle: water) was 30 % of control and the T/C (dose: 106.66 mg/kg/injection, schedule: Q04DX003 (sc), vehicle: water) was 45 % of control. For the same compound, the T/C (dose: 128.0 mg/kg/injection, schedule: Q01DX010 (ip), vehicle: water) was 21 % of control, the T/C (dose: 213.33 mg/kg/injection, schedule: Q04DX003 (ip), vehicle: water) was 52 % of control and the T/C (dose: 213.33 mg/kg/injection, schedule: Q04DX003 (sc), vehicle: water) was 59 % of control. The T/C (dose: 256.0 mg/kg/injection, schedule: Q01DX010 (ip), vehicle: water) was 27 % of control, the T/C (dose: 426.65 mg/kg/injection, schedule: Q04DX003 (ip), vehicle: water) was 26 % of control and the T/C (dose: 426.65 mg/kg/injection, schedule: Q04DX003 (sc), vehicle: water) was 49 % of control. The T/C (dose: 512.0 mg/kg/injection, schedule: Q01DX010 (sc), vehicle: water) was 25 % of control.

With `NC(=O)c1ncn2c(=O)n(CCCl)nnc12` the T/C [6] was 69 % of control and the T/C [7] was 30 % of control.

`COc1cccc2c1C(=O)c1c(O)c3c(c(O)c1C2=O)C[C@@](O)(C(=O)CO)C[C@@H]3OC1CC(OC(C)=O)C(OC(C)=O)C(C)O1` (stereo partly drawn) was tested, and the T/C (dose: 6.25 mg/kg/injection, schedule: Q01DX010 (sc), vehicle: distilled water + Tween-80) was 82 % of control and the T/C (dose: 12.5 mg/kg/injection, schedule: Q01DX010 (sc), vehicle: distilled water + Tween-80) was 96 % of control.

With `NCCCC(N)(C(=O)O)C(F)F` (stereo not drawn) the T/C (dose: 300.0 mg/kg/injection, schedule: Q04DX003 (sc), vehicle: distilled water + alcohol) was 110 % of control, the T/C (dose: 600.0 mg/kg/injection, schedule: Q04DX003 (sc), vehicle: distilled water + alcohol) was 83 % of control and the T/C (dose: 1200.0 mg/kg/injection, schedule: Q04DX003 (sc), vehicle: distilled water + alcohol) was 73 % of control. For the same compound, the T/C (dose: 2400.0 mg/kg/injection, schedule: Q04DX003 (sc), vehicle: distilled water + alcohol) was 112 % of control.

For `COc1cc(Cl)ccc1C`, the T/C [1] was 108 % of control, the T/C [2] was 88 % of control and the T/C [3] was 95 % of control. For the same compound, the T/C [4] was 76 % of control.

For `OCCN1CCN(CCCN2c3ccccc3Sc3ccc(C(F)(F)F)cc32)CC1`, the T/C (dose: 30.0 mg/kg/injection, schedule: Q04DX003 (sc), vehicle: saline) was 87 % of control, the T/C (dose: 60.0 mg/kg/injection, schedule: Q04DX003 (sc), vehicle: saline) was 50 % of control and 71 % of control and the T/C (dose: 480.0 mg/kg/injection, schedule: Q04DX003 (sc), vehicle: saline) was 36 % of control.

For `CC(=O)Nc1ccc(O)c(O)c1`, the T/C [1] was 75 % of control, the T/C [2] was 52 % of control and the T/C [3] was 47 % of control.
